# According to paper PMC3482625 (Analytical chemistry, 2011):
# Biological target: Matrix metalloproteinase-9 (MMP-9) (Homo sapiens, UniProt P14780)
# Assay: fluorogenic peptide
# Assay type: biochemical
# Chain of Matrix metalloproteinase-9 (MMP-9) (P14780 107-707): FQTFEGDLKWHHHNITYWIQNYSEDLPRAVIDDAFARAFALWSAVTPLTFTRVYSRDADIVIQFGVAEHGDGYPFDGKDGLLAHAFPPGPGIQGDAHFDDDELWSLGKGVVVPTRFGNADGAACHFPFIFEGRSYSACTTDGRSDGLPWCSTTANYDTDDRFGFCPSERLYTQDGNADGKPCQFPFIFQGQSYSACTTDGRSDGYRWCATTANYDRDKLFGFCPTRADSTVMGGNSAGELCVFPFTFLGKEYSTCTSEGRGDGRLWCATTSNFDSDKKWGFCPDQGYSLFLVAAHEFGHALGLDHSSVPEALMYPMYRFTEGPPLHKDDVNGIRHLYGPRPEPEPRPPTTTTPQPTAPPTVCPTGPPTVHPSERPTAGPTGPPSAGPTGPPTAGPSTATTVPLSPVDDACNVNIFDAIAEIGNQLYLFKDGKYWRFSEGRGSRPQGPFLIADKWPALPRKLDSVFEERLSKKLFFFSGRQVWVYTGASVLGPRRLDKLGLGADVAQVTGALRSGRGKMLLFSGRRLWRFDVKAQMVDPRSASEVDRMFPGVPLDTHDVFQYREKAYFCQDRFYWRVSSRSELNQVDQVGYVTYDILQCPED
compound,measurement,value
CC(C)(NS(=O)(=O)c1ccc(Oc2ccc(F)cc2)cc1)C(=O)NO [CP471474],IC50,11.9 ± 1 nM
